# “And” between values parts separate entries of the source, which are not always exact repeats. Equal entries are not always repeated. Inconclusive results and toxic doses are left out.
# System: L1210 leukemia ip in BDF1 mice, survival T/C
# Assay: NCI In Vivo Anticancer Drug Screen. Data for tumor model L1210 Leukemia (intraperitoneal) in B6D2F1 (BDF1) mice
# Conditions: higher = longer survival
# Method in brief: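 Read-out is survival time, reported as the treated-group measurement over the vehicle-control measurement.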
compound,measurement,setting,value
c1cc2n(n1)CCN2,T/C,"endpoint: mean survival time, dose: 26.6 mg/kg/injection, schedule: Q01DX Z (ip), vehicle: methylcellulose (MC)",110 % of control
same,T/C,"endpoint: mean survival time, dose: 40.0 mg/kg/injection, schedule: Q01DX Z (ip), vehicle: methylcellulose (MC)",108 % of control
same,T/C,"endpoint: mean survival time, dose: 50.0 mg/kg/injection, schedule: Q01DX009 (ip), vehicle: water",109 % of control
same,T/C,"endpoint: mean survival time, dose: 60.0 mg/kg/injection, schedule: Q01DX Z (ip), vehicle: methylcellulose (MC)",107 % of control and 112 % of control
same,T/C,"endpoint: mean survival time, dose: 90.0 mg/kg/injection, schedule: Q01DX Z (ip), vehicle: methylcellulose (MC)",104 % of control and 112 % of control
same,T/C,"endpoint: mean survival time, dose: 100.0 mg/kg/injection, schedule: Q01DX001 (ip), vehicle: saline",103 % of control
same,T/C,"endpoint: mean survival time, dose: 100.0 mg/kg/injection, schedule: Q01DX001 (sc), vehicle: saline",112 % of control
same,T/C,"endpoint: mean survival time, dose: 100.0 mg/kg/injection, schedule: Q01DX009 (ip), vehicle: saline",112 % of control
same,T/C,"endpoint: mean survival time, dose: 100.0 mg/kg/injection, schedule: Q01DX009 (ip), vehicle: water",107 % of control
same,T/C,"endpoint: mean survival time, dose: 100.0 mg/kg/injection, schedule: Q04DX003 (ip), vehicle: saline",98 % of control and 100 % of control and 104 % of control
same,T/C,"endpoint: mean survival time, dose: 100.0 mg/kg/injection, schedule: Q04DX003 (ip), vehicle: water",114 % of control
same,T/C,"endpoint: mean survival time, dose: 100.0 mg/kg/injection, schedule: Q04DX003 (sc), vehicle: saline",102 % of control and 105 % of control
same,T/C,"endpoint: mean survival time, dose: 100.0 mg/kg/injection, schedule: Q08DX002 (ip), vehicle: saline",105 % of control
same,T/C,"endpoint: mean survival time, dose: 132.0 mg/kg/injection, schedule: Q01DX009 (ip), vehicle: saline",115 % of control
same,T/C,"endpoint: mean survival time, dose: 135.0 mg/kg/injection, schedule: Q01DX Z (ip), vehicle: methylcellulose (MC)",100 % of control
same,T/C,"endpoint: mean survival time, dose: 200.0 mg/kg/injection, schedule: Q01DX001 (ip), vehicle: saline",101 % of control
same,T/C,"endpoint: mean survival time, dose: 200.0 mg/kg/injection, schedule: Q01DX001 (oral), vehicle: saline",105 % of control
same,T/C,"endpoint: mean survival time, dose: 200.0 mg/kg/injection, schedule: Q01DX001 (sc), vehicle: saline",112 % of control
same,T/C,"endpoint: mean survival time, dose: 200.0 mg/kg/injection, schedule: Q01DX009 (ip), vehicle: water",121 % of control
same,T/C,"endpoint: mean survival time, dose: 200.0 mg/kg/injection, schedule: Q04DX003 (ip), vehicle: saline",98 % of control and 107 % of control and 124 % of control
same,T/C,"endpoint: mean survival time, dose: 200.0 mg/kg/injection, schedule: Q04DX003 (oral), vehicle: saline",110 % of control and 116 % of control
same,T/C,"endpoint: mean survival time, dose: 200.0 mg/kg/injection, schedule: Q04DX003 (sc), vehicle: saline",108 % of control and 118 % of control
same,T/C,"endpoint: mean survival time, dose: 200.0 mg/kg/injection, schedule: Q08DX002 (ip), vehicle: saline",93 % of control
same,T/C,"endpoint: mean survival time, dose: 264.0 mg/kg/injection, schedule: Q04DX003 (ip), vehicle: saline",110 % of control and 117 % of control
same,T/C,"endpoint: mean survival time, dose: 400.0 mg/kg/injection, schedule: Q01DX001 (ip), vehicle: saline",116 % of control
same,T/C,"endpoint: mean survival time, dose: 400.0 mg/kg/injection, schedule: Q01DX001 (oral), vehicle: saline",113 % of control
same,T/C,"endpoint: mean survival time, dose: 400.0 mg/kg/injection, schedule: Q04DX003 (ip), vehicle: water",151 % of control
same,T/C,"endpoint: mean survival time, dose: 400.0 mg/kg/injection, schedule: Q04DX003 (oral), vehicle: saline",124 % of control
same,T/C,"endpoint: mean survival time, dose: 400.0 mg/kg/injection, schedule: Q04DX003 (sc), vehicle: saline",120 % of control
same,T/C,"endpoint: mean survival time, dose: 400.0 mg/kg/injection, schedule: Q08DX002 (ip), vehicle: saline",101 % of control
same,T/C,"endpoint: mean survival time, dose: 600.0 mg/kg/injection, schedule: Q04DX003 (ip), vehicle: saline",177 % of control
same,T/C,"endpoint: mean survival time, dose: 800.0 mg/kg/injection, schedule: Q01DX001 (oral), vehicle: saline",119 % of control
same,T/C,"endpoint: mean survival time, dose: 800.0 mg/kg/injection, schedule: Q04DX003 (ip), vehicle: saline",102 % of control and 104 % of control
same,T/C,"endpoint: mean survival time, dose: 800.0 mg/kg/injection, schedule: Q04DX003 (oral), vehicle: saline",108 % of control and 118 % of control
same,T/C,"endpoint: mean survival time, dose: 800.0 mg/kg/injection, schedule: Q04DX003 (sc), vehicle: saline",100 % of control
same,T/C,"endpoint: mean survival time, dose: 800.0 mg/kg/injection, schedule: Q08DX002 (ip), vehicle: saline",158 % of control
same,T/C,"endpoint: median survival time, dose: 13.0 mg/kg/injection, schedule: Q03HX024 (ip), vehicle: saline",102 % of control
same,T/C,"endpoint: median survival time, dose: 20.0 mg/kg/injection, schedule: Q03HX024 (ip), vehicle: saline",100 % of control
same,T/C,"endpoint: median survival time, dose: 30.0 mg/kg/injection, schedule: Q03HX024 (ip), vehicle: saline",103 % of control
same,T/C,"endpoint: median survival time, dose: 40.0 mg/kg/injection, schedule: Q01DX009 (ip), vehicle: saline",104 % of control
same,T/C,"endpoint: median survival time, dose: 50.0 mg/kg/injection, schedule: Q01DX009 (oral), vehicle: saline",110 % of control
same,T/C,"endpoint: median survival time, dose: 50.0 mg/kg/injection, schedule: Q01DX009 (sc), vehicle: saline",100 % of control
same,T/C,"endpoint: median survival time, dose: 60.0 mg/kg/injection, schedule: Q01DX009 (ip), vehicle: saline",111 % of control
same,T/C,"endpoint: median survival time, dose: 88.0 mg/kg/injection, schedule: Q01DX009 (ip), vehicle: saline",113 % of control
same,T/C,"endpoint: median survival time, dose: 100.0 mg/kg/injection, schedule: Q01DX005 (ip), vehicle: saline",111 % of control
same,T/C,"endpoint: median survival time, dose: 100.0 mg/kg/injection, schedule: Q01DX009 (ip), vehicle: saline",113 % of control
same,T/C,"endpoint: median survival time, dose: 100.0 mg/kg/injection, schedule: Q01DX009 (oral), vehicle: saline",115 % of control
same,T/C,"endpoint: median survival time, dose: 100.0 mg/kg/injection, schedule: Q01DX009 (sc), vehicle: saline",120 % of control
same,T/C,"endpoint: median survival time, dose: 100.0 mg/kg/injection, schedule: Q04DX003 (ip), vehicle: Klucel (hydroxypropylcellulose) (HPC)",105 % of control
same,T/C,"endpoint: median survival time, dose: 100.0 mg/kg/injection, schedule: Q04DX003 (ip), vehicle: saline",116 % of control
same,T/C,"endpoint: median survival time, dose: 100.0 mg/kg/injection, schedule: Q08DX002 (ip), vehicle: saline",100 % of control
same,T/C,"endpoint: median survival time, dose: 108.0 mg/kg/injection, schedule: Q04DX003 (ip), vehicle: saline",100 % of control
same,T/C,"endpoint: median survival time, dose: 133.0 mg/kg/injection, schedule: Q01DX009 (ip), vehicle: saline",121 % of control
same,T/C,"endpoint: median survival time, dose: 133.0 mg/kg/injection, schedule: Q04DX003 (ip), vehicle: saline",119 % of control
same,T/C,"endpoint: median survival time, dose: 133.0 mg/kg/injection, schedule: Q08DX002 (ip), vehicle: saline",119 % of control
same,T/C,"endpoint: median survival time, dose: 180.0 mg/kg/injection, schedule: Q04DX003 (ip), vehicle: saline",100 % of control
same,T/C,"endpoint: median survival time, dose: 200.0 mg/kg/injection, schedule: Q01DX001 (ip), vehicle: saline",103 % of control
same,T/C,"endpoint: median survival time, dose: 200.0 mg/kg/injection, schedule: Q01DX009 (ip), vehicle: saline",106 % of control
same,T/C,"endpoint: median survival time, dose: 200.0 mg/kg/injection, schedule: Q01DX009 (oral), vehicle: saline",86 % of control
same,T/C,"endpoint: median survival time, dose: 200.0 mg/kg/injection, schedule: Q01DX009 (sc), vehicle: saline",150 % of control
same,T/C,"endpoint: median survival time, dose: 200.0 mg/kg/injection, schedule: Q04DX003 (oral), vehicle: saline",119 % of control and 120 % of control
same,T/C,"endpoint: median survival time, dose: 200.0 mg/kg/injection, schedule: Q08DX002 (oral), vehicle: saline",111 % of control and 120 % of control
same,T/C,"endpoint: median survival time, dose: 300.0 mg/kg/injection, schedule: Q01DX001 (ip), vehicle: saline",104 % of control
same,T/C,"endpoint: median survival time, dose: 300.0 mg/kg/injection, schedule: Q04DX003 (ip), vehicle: saline",110 % of control
same,T/C,"endpoint: median survival time, dose: 400.0 mg/kg/injection, schedule: Q04DX003 (ip), vehicle: Klucel (hydroxypropylcellulose) (HPC)",150 % of control
same,T/C,"endpoint: median survival time, dose: 400.0 mg/kg/injection, schedule: Q04DX003 (ip), vehicle: saline",166 % of control
same,T/C,"endpoint: median survival time, dose: 400.0 mg/kg/injection, schedule: Q04DX003 (sc), vehicle: saline",195 % of control
same,T/C,"endpoint: median survival time, dose: 400.0 mg/kg/injection, schedule: Q08DX002 (ip), vehicle: saline",150 % of control
same,T/C,"endpoint: median survival time, dose: 444.0 mg/kg/injection, schedule: Q01DX001 (ip), vehicle: saline",114 % of control
same,T/C,"endpoint: median survival time, dose: 600.0 mg/kg/injection, schedule: Q04DX003 (ip), vehicle: saline",101 % of control
same,T/C,"endpoint: median survival time, dose: 600.0 mg/kg/injection, schedule: Q04DX003 (oral), vehicle: saline",90 % of control
same,T/C,"endpoint: median survival time, dose: 600.0 mg/kg/injection, schedule: Q04DX003 (sc), vehicle: saline",150 % of control
same,T/C,"endpoint: median survival time, dose: 600.0 mg/kg/injection, schedule: Q08DX002 (oral), vehicle: saline",165 % of control
same,T/C,"endpoint: median survival time, dose: 600.0 mg/kg/injection, schedule: Q08DX002 (sc), vehicle: saline",180 % of control
same,T/C,"endpoint: median survival time, dose: 660.0 mg/kg/injection, schedule: Q08DX002 (ip), vehicle: saline",161 % of control
same,T/C,"endpoint: median survival time, dose: 800.0 mg/kg/injection, schedule: Q04DX003 (ip), vehicle: saline",106 % of control and 70 % of control

# Source: PubChem BioAssay AID248 (DTP/NCI, 2004)
